Data on 28 compounds can be found in patent publication US11884661B2, “3-substituted propionic acids as αV integrin inhibitors” (BRISTOL-MYERS SQUIBB COMPANY, priority 2016, dated 2024).

This assay addresses T1, human αVβ6 (Homo sapiens, UniProt P06756+P18564).
T1 construct: purchased R & D systems 3817-AV
Put plainly: human αVβ6 HTRF binding assay. The settings on record: recombinant human αVβ6 integrin, FITC-conjugated fibronectin. The gist of the method: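 Biotinylated recombinant αVβ6 (1.25 nM final) incubated with FITC-fibronectin (5 nM) 1 h at RT, then streptavidin-terbium (0.625 nM) added and incubated overnight at RT in the dark before HTRF read. Buffer: 20 mM Tris pH 7.4, 1 mM MgCl2, 1 mM MnCl2, 0.01% Tween 20, 0.01% BSA.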
A general note: In TR-FRET formats the signal depends on donor and acceptor labels being close together.

SMILES strings stand for the structures.

T1 sequence (P06756 31-992 limits assumed): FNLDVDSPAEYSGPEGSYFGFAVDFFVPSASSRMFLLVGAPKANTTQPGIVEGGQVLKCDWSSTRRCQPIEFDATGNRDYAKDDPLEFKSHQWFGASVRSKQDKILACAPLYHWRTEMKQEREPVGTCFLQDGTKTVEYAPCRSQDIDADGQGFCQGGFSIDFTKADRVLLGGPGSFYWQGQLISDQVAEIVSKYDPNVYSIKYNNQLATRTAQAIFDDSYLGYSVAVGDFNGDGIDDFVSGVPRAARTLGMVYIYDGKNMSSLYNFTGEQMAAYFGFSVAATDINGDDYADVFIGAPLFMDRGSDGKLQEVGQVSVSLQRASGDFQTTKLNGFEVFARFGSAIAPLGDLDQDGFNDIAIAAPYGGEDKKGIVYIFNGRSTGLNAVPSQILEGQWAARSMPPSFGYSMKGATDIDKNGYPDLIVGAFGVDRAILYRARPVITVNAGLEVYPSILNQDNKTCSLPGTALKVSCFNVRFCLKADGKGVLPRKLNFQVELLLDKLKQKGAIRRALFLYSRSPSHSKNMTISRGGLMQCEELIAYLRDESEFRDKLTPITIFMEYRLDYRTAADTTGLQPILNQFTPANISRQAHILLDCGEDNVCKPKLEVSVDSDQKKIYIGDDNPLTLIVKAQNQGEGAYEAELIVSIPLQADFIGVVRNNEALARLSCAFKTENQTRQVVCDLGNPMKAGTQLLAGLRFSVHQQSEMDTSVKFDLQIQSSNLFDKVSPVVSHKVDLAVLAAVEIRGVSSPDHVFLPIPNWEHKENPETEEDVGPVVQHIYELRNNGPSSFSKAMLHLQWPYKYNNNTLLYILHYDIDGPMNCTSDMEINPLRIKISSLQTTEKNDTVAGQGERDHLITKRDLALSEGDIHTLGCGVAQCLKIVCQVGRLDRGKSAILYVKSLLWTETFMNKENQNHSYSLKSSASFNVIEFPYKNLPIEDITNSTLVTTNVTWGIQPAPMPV
T1 sequence (P18564 22-707 limits assumed): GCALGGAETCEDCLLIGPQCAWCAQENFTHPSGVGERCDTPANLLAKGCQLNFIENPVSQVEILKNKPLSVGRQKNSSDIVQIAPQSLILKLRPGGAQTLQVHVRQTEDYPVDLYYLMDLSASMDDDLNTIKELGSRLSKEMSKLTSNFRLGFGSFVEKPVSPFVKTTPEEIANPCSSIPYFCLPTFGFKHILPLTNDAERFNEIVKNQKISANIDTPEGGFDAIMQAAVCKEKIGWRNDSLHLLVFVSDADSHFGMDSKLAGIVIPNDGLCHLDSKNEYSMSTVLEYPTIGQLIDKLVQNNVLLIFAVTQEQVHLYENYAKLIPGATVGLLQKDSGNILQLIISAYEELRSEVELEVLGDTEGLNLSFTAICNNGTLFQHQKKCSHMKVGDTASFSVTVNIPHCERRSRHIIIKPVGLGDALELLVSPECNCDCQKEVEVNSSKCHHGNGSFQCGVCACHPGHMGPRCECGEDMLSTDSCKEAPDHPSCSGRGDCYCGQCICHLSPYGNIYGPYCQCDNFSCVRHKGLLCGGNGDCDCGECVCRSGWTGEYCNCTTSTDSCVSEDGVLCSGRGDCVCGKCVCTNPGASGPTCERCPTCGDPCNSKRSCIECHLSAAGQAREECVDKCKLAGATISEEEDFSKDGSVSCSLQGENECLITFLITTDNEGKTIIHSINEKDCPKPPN

Regarding `CCOc1ncc(C(CC(=O)O)c2nc(CCCCc3ccc4c(n3)NCCC4)cs2)cn1` (single isomer, unassigned) [Example 130, 3-(2-ethoxypyrimidin-5-yl)-3-(4-(4-(5,6,7,8-tetrahydro-1,8-naphthyridin-2-yl)butyl)thiazol-2-yl)propanoic acid], the IC50 amounted to 2.9 nM.
`CN(C)C(=O)c1ccc(C(CC(=O)O)c2nc(CCCCc3ccc4c(n3)NCCC4)cs2)cc1F` (single isomer, unassigned) [Example 131, 3-(4-(dimethylcarbamoyl)-3-fluorophenyl)-3-(4-(4-(5,6,7,8-tetrahydro-1,8-naphthyridin-2-yl)butyl)thiazol-2-yl)propanoic acid]: the concentration for half-maximal inhibition (IC50) stood at 2.3 nM.
As for `CN(C)C(=O)c1ccc(C(CC(=O)O)c2nc(CCCCc3ccc4c(n3)NCCC4)cs2)cc1F` (single isomer, unassigned) [Example 132, 3-(4-(dimethylcarbamoyl)-3-fluorophenyl)-3-(4-(4-(5,6,7,8-tetrahydro-1,8-naphthyridin-2-yl)butyl)thiazol-2-yl)propanoic acid], the figure is 81 nM; as for `CN(C)c1ccc(C(CC(=O)O)c2nc(CCCc3ccc4c(n3)NCCC4)cs2)cn1` (single isomer, unassigned) [Example 133, 3-(6-(dimethylamino)pyridin-3-yl)-3-(4-(3-(5,6,7,8-tetrahydro-1,8-naphthyridin-2-yl)propyl)thiazol-2-yl)propanoic acid], 86 nM; as for `CN(C)c1ccc(C(CC(=O)O)c2nc(CCCc3ccc4c(n3)NCCC4)cs2)cn1` (single isomer, unassigned) [Example 134, 3-(6-(dimethylamino)pyridin-3-yl)-3-(4-(3-(5,6,7,8-tetrahydro-1,8-naphthyridin-2-yl)propyl)thiazol-2-yl)propanoic acid], 1.8 nM.
With `CN(C)C(=O)c1ccc(C(CC(=O)O)c2nc(CCCc3ccc4c(n3)NCCC4)cs2)cc1F` (single isomer, unassigned) [Example 135, 3-(4-(dimethylcarbamoyl)-3-fluorophenyl)-3-(4-(3-(5,6,7,8-tetrahydro-1,8-naphthyridin-2-yl)propyl)thiazol-2-yl)propanoic acid] the figure was 4.9 nM.
Turning to `CN(C)C(=O)c1ccc(C(CC(=O)O)c2nc(CCCc3ccc4c(n3)NCCC4)cs2)cc1F` (single isomer, unassigned) [Example 136, 3-(4-(dimethylcarbamoyl)-3-fluorophenyl)-3-(4-(3-(5,6,7,8-tetrahydro-1,8-naphthyridin-2-yl)propyl)thiazol-2-yl)propanoic acid], the IC50 stood at 12 nM.
As for `CN(C)C(=O)c1ccc(C(CC(=O)O)c2nc(CCCc3ccc4c(n3)NCCC4)cs2)cc1` (single isomer, unassigned) [Example 137, 3-(4-(dimethylcarbamoyl)phenyl)-3-(4-(3-(5,6,7,8-tetrahydro-1,8-naphthyridin-2-yl)propyl)thiazol-2-yl)propanoic acid], the figure is 210 nM; as for `CN(C)C(=O)c1ccc(C(CC(=O)O)c2nc(CCCc3ccc4c(n3)NCCC4)cs2)cc1` (single isomer, unassigned) [Example 138, 3-(4-(dimethylcarbamoyl)phenyl)-3-(4-(3-(5,6,7,8-tetrahydro-1,8-naphthyridin-2-yl)propyl)thiazol-2-yl)propanoic acid], 4 nM.
As for `CN(C)C(=O)c1cccc(C(CC(=O)O)c2nc(CCCc3ccc4c(n3)NCCC4)cs2)c1` (single isomer, unassigned) [Example 139, 3-(3-(dimethylcarbamoyl)phenyl)-3-(4-(3-(5,6,7,8-tetrahydro-1,8-naphthyridin-2-yl)propyl)thiazol-2-yl)propanoic acid], the figure is 34 nM; as for `CN(C)C(=O)c1cccc(C(CC(=O)O)c2nc(CCCc3ccc4c(n3)NCCC4)cs2)c1` (single isomer, unassigned) [Example 140, 3-(3-(dimethylcarbamoyl)phenyl)-3-(4-(3-(5,6,7,8-tetrahydro-1,8-naphthyridin-2-yl)propyl)thiazol-2-yl)propanoic acid], 3.7 nM.
For the compound `COc1ccc(C(CC(=O)O)c2nc(CCCc3ccc4c(n3)NCCC4)cs2)cc1OC` (single isomer, unassigned) [Example 141, 3-(3,4-dimethoxyphenyl)-3-(4-(3-(5,6,7,8-tetrahydro-1,8-naphthyridin-2-yl)propyl)thiazol-2-yl)propanoic acid], the IC50 amounted to 2.9 nM.
With `COc1ccc(C(CC(=O)O)c2nc(CCCc3ccc4c(n3)NCCC4)cs2)cc1OC` (single isomer, unassigned) [Example 142, 3-(3,4-dimethoxyphenyl)-3-(4-(3-(5,6,7,8-tetrahydro-1,8-naphthyridin-2-yl)propyl)thiazol-2-yl)propanoic acid] the figure was 37 nM; with `COc1ncc(C(CC(=O)O)c2nc(CCCCc3ccc4c(n3)NCCC4)cs2)cn1` (single isomer, unassigned) [Example 143, 3-(2-Methoxypyrimidin-5-yl)-3-(4-(4-(5,6,7,8-tetrahydro-1,8-naphthyridin-2-yl)butyl)thiazol-2-yl)propanoic acid], 88 nM; with `COc1ncc(C(CC(=O)O)c2nc(CCCCc3ccc4c(n3)NCCC4)cs2)cn1` (single isomer, unassigned) [Example 144, 3-(2-Methoxypyrimidin-5-yl)-3-(4-(4-(5,6,7,8-tetrahydro-1,8-naphthyridin-2-yl)butyl)thiazol-2-yl)propanoic acid], 7 nM.
With `COc1ncc(C(CC(=O)O)c2nc(CCCc3ccc4c(n3)NCCC4)cs2)cn1` (single isomer, unassigned) [Example 146, 3-(2-methoxypyrimidin-5-yl)-3-(4-(3-(5,6,7,8-tetrahydro-1,8-naphthyridin-2-yl)propyl)thiazol-2-yl)propanoic acid] the figure was 140 nM; with `Cc1ncc(C(CC(=O)O)c2nc(CCCc3ccc4c(n3)NCCC4)cs2)cn1` (single isomer, unassigned) [Example 147, 3-(2-methylpyrimidin-5-yl)-3-(4-(3-(5,6,7,8-tetrahydro-1,8-naphthyridin-2-yl)propyl)thiazol-2-yl)propanoic acid], 1.9 nM.
For `Cc1ncc(C(CC(=O)O)c2nc(CCCc3ccc4c(n3)NCCC4)cs2)cn1` (single isomer, unassigned) [Example 148, 3-(2-methylpyrimidin-5-yl)-3-(4-(3-(5,6,7,8-tetrahydro-1,8-naphthyridin-2-yl)propyl)thiazol-2-yl)propanoic acid], the IC50 turned out to be 6 nM.
As for `Cc1ncc(C(CC(=O)O)c2nc(CCCc3ccc4c(n3)NCCC4)cs2)cn1` (single isomer, unassigned) [Example 149, 3-(2-methylpyrimidin-5-yl)-3-(4-(3-(5,6,7,8-tetrahydro-1,8-naphthyridin-2-yl)propyl)thiazol-2-yl)propanoic acid], the figure is 7.2 nM.
As for `Cc1cncc(C(CC(=O)O)c2nc(CCCc3ccc4c(n3)NCCC4)cs2)c1` (single isomer, unassigned) [Example 150, 3-(5-methylpyridin-3-yl)-3-(4-(3-(5,6,7,8-tetrahydro-1,8-naphthyridin-2-yl)propyl)thiazol-2-yl)propanoic acid], the figure is 87 nM; as for `Cc1cncc(C(CC(=O)O)c2nc(CCCc3ccc4c(n3)NCCC4)cs2)c1` (single isomer, unassigned) [Example 151, 3-(5-methylpyridin-3-yl)-3-(4-(3-(5,6,7,8-tetrahydro-1,8-naphthyridin-2-yl)propyl)thiazol-2-yl)propanoic acid], 2.6 nM.
With `COc1ccc(C(CC(=O)O)c2csc(CCCc3ccc4c(n3)NCCC4)n2)cc1F` (single isomer, unassigned) [Example 152, 3-(3-fluoro-4-methoxyphenyl)-3-(2-(3-(5,6,7,8-tetrahydro-1,8-naphthyridin-2-yl)propyl)thiazol-4-yl)propanoic acid] the figure was 180 nM.
On to `COc1ccc(C(CC(=O)O)c2nc(CCCC3CCc4cccnc4N3)cs2)cn1` (single isomer, unassigned) [Example 154, 3-(6-methoxypyridin-3-yl)-3-(4-(3-(1,2,3,4-tetrahydro-1,8-naphthyridin-2-yl)propyl)thiazol-2-yl)propanoic acid], for which the IC50 amounted to 210 nM.
Take `COc1ccc(C(CC(=O)O)c2nc(CCCC3CCc4cccnc4N3)cs2)cn1` (single isomer, unassigned) [Example 155, 3-(6-methoxypyridin-3-yl)-3-(4-(3-(1,2,3,4-tetrahydro-1,8-naphthyridin-2-yl)propyl)thiazol-2-yl)propanoic acid]: the IC50 stood at 8.1 nM.
As for `COc1ccc(C(CC(=O)O)c2nc(CCCC3CCc4cccnc4N3)cs2)cn1` (single isomer, unassigned) [Example 156, 3-(6-methoxypyridin-3-yl)-3-(4-(3-(1,2,3,4-tetrahydro-1,8-naphthyridin-2-yl)propyl)thiazol-2-yl)propanoic acid], the figure is 260 nM; as for `COc1ccc(C(CC(=O)O)c2nc(CCCC3CCc4cccnc4N3)cs2)cn1` (single isomer, unassigned) [Example 157, 3-(6-methoxypyridin-3-yl)-3-(4-(3-(1,2,3,4-tetrahydro-1,8-naphthyridin-2-yl)propyl)thiazol-2-yl)propanoic acid], 27 nM; as for `COc1ccc(C(CC(=O)O)c2nc(CCCC3CCc4cccnc4N3)cs2)cc1F` (single isomer, unassigned) [Example 158, 3-(3-fluoro-4-methoxyphenyl)-3-(4-(3-(1,2,3,4-tetrahydro-1,8-naphthyridin-2-yl)propyl)thiazol-2-yl)propanoic acid], 7 nM.
Consider `COc1ccc(C(CC(=O)O)c2nc(CCCC3CCc4cccnc4N3)cs2)cc1F` (single isomer, unassigned) [Example 159, 3-(3-fluoro-4-methoxyphenyl)-3-(4-(3-(1,2,3,4-tetrahydro-1,8-naphthyridin-2-yl)propyl)thiazol-2-yl)propanoic acid], for which the IC50 came out at 370 nM.

Broadly, the IC50 is the concentration needed to halve the response being measured.
